Consider one compound from US10092568B2, “CBP/Catenin antagonists for enhancing asymmetric division of somatic stem cells” (University of Southern California, priority 2010, dated 2018).

“Also recorded” adds a separate entry of the source.

In series [1] the test system is Adenosine Receptor A2B (ADORA2B). The experiment in a line: Gene expression array of cells in culture. The following applies: colonic epithelium, 10 uM. The format is cell-based.
Series [2] concerns human anagen hair follicles. The following applies: cited from earlier work.
In another series the test system is MDA-MB-231 cells. The experiment in a line: Stem cell markers in triple negative breast cancer cell line. The format is cell-based. The source says: This phenotype CD44^hi, CD24^lo has been associated with a subpopulation of cells that behave like a breast cancer stem/tumor initiating cell population (51). […] Beyond reduction of survivin message level, there is a gene expression profile consistent with the occurrence of a mesenchymal to epithelial (MET) transition (i.e., decreased expression of twist, vimentin and S100A4 and an increase in E-cadherin expression). Recently, there have been a number of papers, which have correlated epithelial to mesenchymal transition (EMT) with a CSC phenotype (52). EMT is a normal physiologic process that is important in development and in adults, for example in wound healing, but pathophysiologically is associated with tumor metastasis and organ fibrosis (see later discussion on fibrosis). Specific CBP/catenin antagonists can reverse this aberrant EMT in vivo (EMT also plays a critical role in the skin in hair loss etc. J Dermatol Sci. 2011 Jan; 61(1):7-13. Epub 2010 Dec. 5; epithelial-mesenchymal transition (EMT) plays important roles not only in the morphogenesis but also in wound repair, tissue fibrosis and cancer progression. Recently, regulatory mechanism of this process has been elaborately elucidated. EMT can be a new therapeutic target for treating skin ulcer, fibrosing alopecia, and malignant cutaneous cancers, including squamous cell carcinoma and melanoma).

The test system of series [3] is NOD/SCIDIL2R gamma−/− mice. The experiment in a line: Leukemia mouse model, hair growth and wound healing. The conditions noted are these: 50 mg/kg/d with VDL versus VDL only. The format is in vivo. The protocol:
NOD/SCIDIL2R gamma−/− mice were shaved and sublethally irradiated prior intravenous injection of 50,000 cells per animal. Leukemic animals were treated with a combination of intraperitoneally administered vincristine/dexamethasone/L-Aspariginase (VDL) and ICG-001 (50 mg/kg/d), which was delivered via subcutaneous osmotic pumps to ensure stable plasma levels, with VDL only as a control for 20 days. The animals were checked periodically for survival, hair growth, and wound healing.

In series [4] the test system is human skin (surgical waste). The experiment in a line: Ex vivo human skin assay, qRT-PCR. The conditions noted are these: 24 hrs; 5 uM ICG-001, 5 uM methylated ICG-001, 1 ug/ml RA. The format is cell-based. On the procedure:
Methods. Ex Vivo human skin assay culture conditions were based upon a paper by Varani J et al Experimental and Molecular Pathology, 2004.
Briefly, human skin (surgical waste from plastic surgery procedures) was obtained and the subcutaneous layer of fat was trimmed manually with a scalpel. The skin was then cut into small fragments about 2 mm square and placed in 6 well plates. 1 ml of keratinocyte culture medium (Gibco 10724-011) with 1% P/S (penstrep antibiotic) was added to each well. The epidermis, bathed in media was placed facing up. On the next day (overnight culture in the media above), the skin fragments were transferred to fresh wells that contained either 5 uM ICG-001, 5-uM methylated ICG-001 or 1 ug/ml of retinoic acid (RA). After 24 hrs, skin samples in culture were removed for RNA isolation and qRT-PCR analysis of genes of interest (e.g., elastin (a gene involved in skin appearance and pliability (e.g., wrinkling)) and aquaporin 1, which is involved with hydration.
(In general: Real-time PCR tracks product formation cycle by cycle.)

Series [5] concerns mitotic cells in the ventricular zone (VZ). The experiment in a line: Par3 localization assay of symmetric versus asymmetric divisions in the ventricular zone of embryonic brain. The format is in vivo, mouse. The text has this: Taking advantage of the ready uptake and penetration through the placental barrier of applicant's small molecule Wnt modulators, applicant designed a series of experiments to investigate symmetric versus asymmetric divisions in the ventricular zone (VZ) of the brain during mouse embryonic development. Timed pregnant mice were topically treated for various time periods (1-3 days) with DMSO (vehicle control), the CBP/catenin antagonist ICG-001 or the p300/catenin antagonist IQ-1. Using a previously described protocol (56), the localization of […] (Par3) and DNA was examined in mitotic cells in the VZ. Par3 distributes symmetrically in cells that divide symmetrically and asymmetrically in cells that divide asymmetrically, whereas the DNA distributes symmetrically between the 2 cells. Using fluorescence microscopy, the percentage of mitotic cells dividing symmetrically or asymmetrically could be quantified. […] Antagonizing the CBP/catenin interaction with ICG-001 had no apparent effect yielding similarly, approximately 21% asymmetric divisions. […] Importantly, this decrease in asymmetric divisions upon treatment with IQ-1 could be rescued back essentially to control levels (i.e. ˜21%) by treatment with a 2-fold excess of ICG-001. Even further divergence in symmetric versus asymmetric divisions could be seen upon prolonged treatments. For example, treatment with IQ-1 (i.e., antagonizing p300/catenin interaction leading to increased usage of CBP) for 3 days (E13.5-16.5) decreased asymmetric divisions compared to control from 31% to 7%. […] This reporter mouse expresses EGFP, driven by the Tis21 promoter, in cells that have undergone neurogenic differentiative divisions.
For example, Bultje et al. (Bultje R Neuron 63, 189-202, 2009) describe an assay to measure asymmetric distributions in the ventricular zone (vz) to evaluate asymmetric divisions during neurogenesis. Essentially this involves treating the animal (either adult or in utero) for a set period of time with compounds (either p.o., s.c., i.v. or topically) with compounds and then sacrificing the animal and examining the Par3 distribution (e.g., via immunohistochemistry) in mitotic cells vs. DNA distribution (e.g., using DAPI staining) Par3 distributes equally among the two daughter cells during symmetric division and unequally (essentially all in one daughter cell) during asymmetric differentiation.

The subject of the next series is ER alpha receptor. The experiment in a line: ER alpha re-expression in triple negative breast cancer. The format is cell-based.
For another series, the system named is Colorectal cancer cells. The experiment in a line: Survivin expression and cytotoxicity in colorectal cancer cells. The format is cell-based. The source says:
Cancer. The importance of Wnt signaling in colorectal cancer is undisputed. Applicant's investigation on the therapeutic utility of ICG-001 therefore quite naturally began with colon cancer.

Another series concerns the target p300 (Homo sapiens, UniProt Q09472). The experiment in a line: Binding to coactivator p300. The text has this:
ICG-001. Applicant's pharmacologic tools were identified using cell-based forward chemical genomic screens of small molecule secondary structure template chemical libraries (22).

Sequence of p300 (Q09472 whole entry, species assumed): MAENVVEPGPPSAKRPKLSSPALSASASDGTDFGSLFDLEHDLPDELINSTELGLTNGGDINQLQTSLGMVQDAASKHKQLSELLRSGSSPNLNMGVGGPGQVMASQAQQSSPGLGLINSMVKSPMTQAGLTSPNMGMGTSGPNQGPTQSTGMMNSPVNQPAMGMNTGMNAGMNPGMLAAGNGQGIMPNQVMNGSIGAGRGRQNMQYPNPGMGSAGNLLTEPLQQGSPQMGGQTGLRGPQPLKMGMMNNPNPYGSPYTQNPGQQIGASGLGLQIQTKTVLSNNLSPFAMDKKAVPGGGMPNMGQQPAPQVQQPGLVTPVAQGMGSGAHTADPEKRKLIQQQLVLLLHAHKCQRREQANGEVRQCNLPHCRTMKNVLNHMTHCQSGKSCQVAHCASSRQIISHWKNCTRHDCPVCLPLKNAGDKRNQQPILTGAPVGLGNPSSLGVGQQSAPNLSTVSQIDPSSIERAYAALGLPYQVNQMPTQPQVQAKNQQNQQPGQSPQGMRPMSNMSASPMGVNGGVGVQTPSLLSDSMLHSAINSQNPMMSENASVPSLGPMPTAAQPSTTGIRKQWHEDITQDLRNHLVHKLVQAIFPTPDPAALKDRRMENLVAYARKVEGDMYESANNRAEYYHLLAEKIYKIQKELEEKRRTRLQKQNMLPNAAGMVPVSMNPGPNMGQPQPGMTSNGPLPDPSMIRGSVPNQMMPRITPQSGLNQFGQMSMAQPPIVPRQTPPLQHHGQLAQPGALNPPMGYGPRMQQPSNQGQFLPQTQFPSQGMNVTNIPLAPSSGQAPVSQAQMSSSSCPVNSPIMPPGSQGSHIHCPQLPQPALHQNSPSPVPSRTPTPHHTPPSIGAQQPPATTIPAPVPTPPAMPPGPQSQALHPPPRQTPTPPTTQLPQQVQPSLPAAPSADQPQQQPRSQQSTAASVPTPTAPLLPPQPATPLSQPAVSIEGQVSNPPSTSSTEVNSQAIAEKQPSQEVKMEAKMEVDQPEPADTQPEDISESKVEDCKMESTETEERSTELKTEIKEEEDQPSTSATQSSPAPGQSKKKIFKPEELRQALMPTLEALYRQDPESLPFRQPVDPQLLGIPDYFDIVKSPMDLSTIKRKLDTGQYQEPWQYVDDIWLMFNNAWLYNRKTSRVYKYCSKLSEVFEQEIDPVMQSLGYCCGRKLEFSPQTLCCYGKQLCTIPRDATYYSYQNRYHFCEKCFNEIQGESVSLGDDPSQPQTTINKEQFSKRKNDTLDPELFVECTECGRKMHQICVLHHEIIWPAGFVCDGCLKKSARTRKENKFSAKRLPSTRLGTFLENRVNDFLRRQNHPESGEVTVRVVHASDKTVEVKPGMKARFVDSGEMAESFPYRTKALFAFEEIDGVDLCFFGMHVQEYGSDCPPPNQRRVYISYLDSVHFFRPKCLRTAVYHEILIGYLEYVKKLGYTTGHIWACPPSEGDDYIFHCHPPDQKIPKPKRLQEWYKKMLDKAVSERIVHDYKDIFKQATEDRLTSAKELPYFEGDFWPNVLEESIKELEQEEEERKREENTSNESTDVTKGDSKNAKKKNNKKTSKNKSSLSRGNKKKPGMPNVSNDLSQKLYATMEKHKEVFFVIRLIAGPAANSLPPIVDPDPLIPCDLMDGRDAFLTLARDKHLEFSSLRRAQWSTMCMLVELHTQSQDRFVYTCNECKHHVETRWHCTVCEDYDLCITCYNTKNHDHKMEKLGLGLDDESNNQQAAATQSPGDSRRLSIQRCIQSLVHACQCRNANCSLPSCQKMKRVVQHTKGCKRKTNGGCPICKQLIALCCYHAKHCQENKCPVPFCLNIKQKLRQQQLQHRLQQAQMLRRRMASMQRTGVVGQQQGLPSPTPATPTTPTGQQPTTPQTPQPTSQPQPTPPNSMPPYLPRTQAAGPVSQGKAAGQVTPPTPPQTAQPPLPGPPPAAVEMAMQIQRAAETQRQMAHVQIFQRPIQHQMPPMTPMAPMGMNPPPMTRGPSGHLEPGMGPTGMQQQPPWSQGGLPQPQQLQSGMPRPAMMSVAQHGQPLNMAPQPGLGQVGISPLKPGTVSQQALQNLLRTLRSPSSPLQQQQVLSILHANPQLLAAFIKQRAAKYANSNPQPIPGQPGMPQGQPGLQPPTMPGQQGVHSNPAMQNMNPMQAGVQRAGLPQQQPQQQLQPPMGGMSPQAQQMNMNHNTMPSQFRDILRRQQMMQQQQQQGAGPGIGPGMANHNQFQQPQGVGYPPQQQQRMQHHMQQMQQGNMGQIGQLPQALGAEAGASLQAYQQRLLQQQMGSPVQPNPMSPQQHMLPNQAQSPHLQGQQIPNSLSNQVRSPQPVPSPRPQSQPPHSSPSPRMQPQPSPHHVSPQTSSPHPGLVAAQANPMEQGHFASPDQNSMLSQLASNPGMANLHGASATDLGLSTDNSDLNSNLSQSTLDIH

As to `O=C1[C@H](Cc2ccc(O)cc2)N2C(=O)CCN(C(=O)NCc3ccccc3)[C@H]2CN1Cc1cccc2ccccc12` [ICG-001], in series [1], the “increase of expression of adenosine receptors (ADORA2B)” value was ~10 ×. Also, the hair fiber elongation result in series [2] (dose-dependent) was “significantly reduced”. In addition, in [2] (microdissected hair follicle), the survivin expression entry is recorded as “decreased”. In the series on MDA-MB-231 cells, the ALDH activity entry is on record as “dramatically decreases” and the “side population (SP)” value is given as “dramatically decreases”. The “recruitment of p300 to the CD24 promoter” value in the series on MDA-MB-231 cells (ChIP) is given as “increased recruitment”. In addition, the CD44 expression entry with MDA-MB-231 cells (MDA-MB-231) is reported as “decreasing”. In addition, the “expression of cell surface CD24” value with MDA-MB-231 cells (MDA-MB-231, 24h) is recorded as “significantly increased”. For the same compound, the “healing of wounds from pump insertion” value in series [3] is “had substantial improved; also recorded: heal quicker”. Further, in series [3] (within two weeks), the “hair growth of shaved area” value is given as “had regrown their hair; also recorded: substantial hair growth”. Also, in [4], the “expression of aquaporin 1” value is “increase” and the expression of elastin entry is “increase”. Besides, the “asymmetric divisions in the VZ after IQ-1, rescued” value in [5] (IQ-1 plus 2-fold excess of ICG-001) is given as “approximately 21%”. The “defect in asymmetric divisions caused by IQ-1” value in series [5] (excess ICG-001) was “corrects the defect”. Further, the “number of asymmetric divisions compared to vehicle control” value in series [5] (topical or oral administration to pregnant mice) was “does not affect”. Also, the “asymmetric divisions in the VZ” value in series [5] (topical, 1 day, E13.5 to 14.5, DMSO approximately 21%) is listed as “approximately 21%”. Moreover, the “expression of the ER alpha receptor” value in the series with ER alpha receptor is reported as “re-expression”. Moreover, in the series on Colorectal cancer cells, the survivin expression entry is reported as “down-regulated”. The cytotoxicity result in the series on Colorectal cancer cells (colorectal cancer cells versus normal colonic epithelial cells) was “selective cytotoxicity”. In addition, the “binding to p300” value on p300 was “not to its closely related homolog p300”.
